# Assay results reported in patent US10512700B2, “Radiohalide-labeled targeted diagnostics and therapeutics” (Memorial Sloan Kettering Cancer Center, priority 2014, dated 2019).
# Several values for one entry are separate records, joined by “and”; a condition that tells them apart may be missing. Identical values can stand only once.
# Test system: U87 MG tumor bearing mice
# Experiment: Biodistribution
# Format: in vivo, mouse
# Settings: i.v.
# Protocol: Biodistribution experiments were conducted on female nude mice (8-10 weeks old and 20-25 g in weight, n=21) bearing U87 MG subcutaneous xenografts. The radiolabeled preparation (20-30 μCi of compound C-2d (^131I) in 200 μL of a solution 90% PBS 10% PEG300) was administrated via the lateral tail vein. To determine a suitable specific activity (to achieve a sufficiently high tumor to organ ratio), several specific activities were tested (5 mCi/μmol, 50 mCi/μmol, 250 mCi/μmol) in mice bearing U87 MG tumors. The compound was allowed to circulate for 2 h post injection at which time mice were sacrificed and organs were harvested (n=3). The radioactive content in tissue of interest (blood, tumor, muscle, bone, liver, spleen, kidney, heart, lung, pancreas, brain, skin, small intestine, large intestine, stomach, tail, thyroid and feces) was measured on a Wizard 2470 Automatic Gamma Counter, and the tissue-associated activity was calculated as the mean % ID/g using the following formula: [(activity in the target organ/grams of tissue)/injected dose]×100%.
# After determining the optimal specific activity (of the three tested), a suitable time window for imaging was determined by testing the compound distribution in nude mice bearing U87 MG tumors at different time points. The compound was allowed to circulate for various times (1, 2, and 6 h), after which the mice were sacrificed (n=3).
# [1] = 50 mCi/μmol, 2 h post injection
# [2] = 250 mCi/μmol, 2 h post injection
smiles,measurement,setting,value
O=C(c1ccc([131I])cc1)N1CCN(C(=O)c2cc(Cc3n[nH]c(=O)c4ccccc34)ccc2F)CC1 [C-2d (^131I)],"% ID/g, Blood","5 mCi/μmol, 2 h post injection",5.88 % ID/g
same,"% ID/g, Bone","5 mCi/μmol, 2 h post injection",0.14 % ID/g
same,"% ID/g, Brain","5 mCi/μmol, 2 h post injection",0.02 % ID/g
same,"% ID/g, Feces","5 mCi/μmol, 2 h post injection",6.23 % ID/g
same,"% ID/g, Heart","5 mCi/μmol, 2 h post injection",0.26 % ID/g
same,"% ID/g, Kidneys","5 mCi/μmol, 2 h post injection",1.08 % ID/g
same,"% ID/g, Large intestine","5 mCi/μmol, 2 h post injection",5.43 % ID/g
same,"% ID/g, Liver","5 mCi/μmol, 2 h post injection",3.14 % ID/g
same,"% ID/g, Lung","5 mCi/μmol, 2 h post injection",0.55 % ID/g
same,"% ID/g, Muscle","5 mCi/μmol, 2 h post injection",0.27 % ID/g
same,"% ID/g, Pancreas","5 mCi/μmol, 2 h post injection",0.67 % ID/g
same,"% ID/g, Skin","5 mCi/μmol, 2 h post injection",0.26 % ID/g
same,"% ID/g, Small intestine","5 mCi/μmol, 2 h post injection",14.16 % ID/g
same,"% ID/g, Spleen","5 mCi/μmol, 2 h post injection",0.60 % ID/g
same,"% ID/g, Stomach","5 mCi/μmol, 2 h post injection",5.86 % ID/g
same,"% ID/g, Tail","5 mCi/μmol, 2 h post injection",2.31 % ID/g
same,"% ID/g, Thyroid","5 mCi/μmol, 2 h post injection",0.37 % ID/g
same,"% ID/g, Tumor","5 mCi/μmol, 2 h post injection",0.32 % ID/g
same,"% ID/g, Blood",[1],0.90 % ID/g
same,"% ID/g, Bone",[1],0.04 % ID/g
same,"% ID/g, Brain",[1],0.007 % ID/g
same,"% ID/g, Feces",[1],3.75 % ID/g
same,"% ID/g, Heart",[1],0.10 % ID/g
same,"% ID/g, Kidneys",[1],0.35 % ID/g
same,"% ID/g, Large intestine",[1],0.94 % ID/g
same,"% ID/g, Liver",[1],1.02 % ID/g
same,"% ID/g, Lung",[1],0.28 % ID/g
same,"% ID/g, Muscle",[1],0.04 % ID/g
same,"% ID/g, Pancreas",[1],0.42 % ID/g
same,"% ID/g, Skin",[1],0.092 % ID/g
same,"% ID/g, Small intestine",[1],7.17 % ID/g
same,"% ID/g, Spleen",[1],0.15 % ID/g
same,"% ID/g, Stomach",[1],1.90 % ID/g
same,"% ID/g, Tail",[1],0.45 % ID/g
same,"% ID/g, Thyroid",[1],0.14 % ID/g
same,"% ID/g, Tumor",[1],0.17 % ID/g
same,"% ID/g, Blood",[2],4.78 % ID/g
same,"% ID/g, Bone",[2],0.09 % ID/g
same,"% ID/g, Brain",[2],0.06 % ID/g
same,"% ID/g, Feces",[2],67.25 % ID/g
same,"% ID/g, Heart",[2],0.16 % ID/g
same,"% ID/g, Kidneys",[2],0.58 % ID/g
same,"% ID/g, Large intestine",[2],17.29 % ID/g
same,"% ID/g, Liver",[2],2.17 % ID/g
same,"% ID/g, Lung",[2],0.43 % ID/g
same,"% ID/g, Muscle",[2],0.074 % ID/g
same,"% ID/g, Pancreas",[2],0.27 % ID/g
same,"% ID/g, Skin",[2],0.14 % ID/g
same,"% ID/g, Small intestine",[2],7.55 % ID/g
same,"% ID/g, Spleen",[2],0.43 % ID/g
same,"% ID/g, Stomach",[2],1.25 % ID/g
same,"% ID/g, Tail",[2],0.58 % ID/g
same,"% ID/g, Thyroid",[2],0.20 % ID/g
same,"% ID/g, Tumor",[2],0.18 % ID/g
same,"% ID/g, Blood",1 h post injection,2.76 % ID/g
same,"% ID/g, Bone",1 h post injection,0.19 % ID/g
same,"% ID/g, Brain",1 h post injection,0.034 % ID/g
same,"% ID/g, Feces",1 h post injection,7.31 % ID/g
same,"% ID/g, Heart",1 h post injection,0.39 % ID/g
same,"% ID/g, Kidneys",1 h post injection,1.60 % ID/g
same,"% ID/g, Large intestine",1 h post injection,1.49 % ID/g
same,"% ID/g, Liver",1 h post injection,4.61 % ID/g
same,"% ID/g, Lung",1 h post injection,0.71 % ID/g
same,"% ID/g, Muscle",1 h post injection,0.27 % ID/g
same,"% ID/g, Pancreas",1 h post injection,0.74 % ID/g
same,"% ID/g, Skin",1 h post injection,0.46 % ID/g
same,"% ID/g, Small intestine",1 h post injection,13.70 % ID/g
same,"% ID/g, Spleen",1 h post injection,0.64 % ID/g
same,"% ID/g, Stomach",1 h post injection,1.88 % ID/g
same,"% ID/g, Tail",1 h post injection,1.00 % ID/g
same,"% ID/g, Thyroid",1 h post injection,0.56 % ID/g
same,"% ID/g, Tumor",1 h post injection,0.50 % ID/g
same,"% ID/g, Blood",2 h post injection,0.90 % ID/g
same,"% ID/g, Bone",2 h post injection,0.044 % ID/g
same,"% ID/g, Brain",2 h post injection,0.007±0.002 % ID/g and 0.007 % ID/g
same,"% ID/g, Feces",2 h post injection,3.75 % ID/g
same,"% ID/g, Heart",2 h post injection,0.10 % ID/g
same,"% ID/g, Kidneys",2 h post injection,0.35 % ID/g
same,"% ID/g, Large intestine",2 h post injection,0.94 % ID/g
same,"% ID/g, Liver",2 h post injection,1.02 % ID/g
same,"% ID/g, Lung",2 h post injection,0.28 % ID/g
same,"% ID/g, Muscle",2 h post injection,0.04±0.02 % ID/g and 0.039 % ID/g
same,"% ID/g, Pancreas",2 h post injection,0.42 % ID/g
same,"% ID/g, Skin",2 h post injection,0.091 % ID/g
same,"% ID/g, Small intestine",2 h post injection,7.16 % ID/g
same,"% ID/g, Spleen",2 h post injection,0.15 % ID/g
same,"% ID/g, Stomach",2 h post injection,1.90 % ID/g
same,"% ID/g, Tail",2 h post injection,0.45 % ID/g
same,"% ID/g, Thyroid",2 h post injection,0.14 % ID/g
same,"% ID/g, Tumor",2 h post injection,0.17±0.06 % ID/g and 0.17 % ID/g
same,"% ID/g, Blood",6 h post injection,0.34 % ID/g
same,"% ID/g, Bone",6 h post injection,0.035 % ID/g
same,"% ID/g, Brain",6 h post injection,0.008 % ID/g
same,"% ID/g, Feces",6 h post injection,70.67 % ID/g
same,"% ID/g, Heart",6 h post injection,0.075 % ID/g
same,"% ID/g, Kidneys",6 h post injection,0.24 % ID/g
same,"% ID/g, Large intestine",6 h post injection,1.33 % ID/g
same,"% ID/g, Liver",6 h post injection,0.65 % ID/g
same,"% ID/g, Lung",6 h post injection,0.12 % ID/g
same,"% ID/g, Muscle",6 h post injection,0.023 % ID/g
same,"% ID/g, Pancreas",6 h post injection,0.084 % ID/g
same,"% ID/g, Skin",6 h post injection,0.072 % ID/g
same,"% ID/g, Small intestine",6 h post injection,1.13 % ID/g
same,"% ID/g, Spleen",6 h post injection,0.060 % ID/g
same,"% ID/g, Stomach",6 h post injection,0.81 % ID/g
same,"% ID/g, Tail",6 h post injection,0.31 % ID/g
same,"% ID/g, Thyroid",6 h post injection,0.098 % ID/g
same,"% ID/g, Tumor",6 h post injection,0.13 % ID/g
